Measured values reported in patent US20070232492A1, “Herbicidal Composition” (Ishihara Sangyo Kaisha, LTD., priority 2004, published 2007).
Where two headings read alike, the source gives them in different places.

System: barnyardgrass (Echinochloa oryzicola vasing)
Assay: Growth inhibition of barnyardgrass in paddy soil pots, application under submerged condition, visual rating (observed value) and Colby expected value
Assay type: in vivo
Conditions: for inhibition at 51 g/ha: 0.51 g/a; for inhibition at 7.9 g/ha: 0.079 g/a; for inhibition at 15.8 g/ha: 0.158 g/a; for inhibition at 50 g/ha: 0.5 g/a; for inhibition at 112.5 g/ha: 1.125 g/a; for inhibition at 225 g/ha: 2.25 g/a
From the text: When the herbicidal activity in a case where two active ingredients are combined, is larger than the simple sum of the respective herbicidal activities of the two active ingredients (the expected activity), it is called a synergistic effect. The activity expected by the combination of two active ingredients can be calculated as follows (Colby S. R., “Weed”, vol. 15, p. 20-22, 1967). E=p+q−(p×q÷100) where p: growth inhibition rate when treated with x (g/a) of herbicide X,
q: growth inhibition rate when treated with y (g/a) of herbicide Y,
E: growth inhibition rate expected when treated with x (g/a) of herbicide X and y (g/a) of herbicide Y.
Namely, when the actual growth inhibition rate (observed value) is larger than the growth inhibition rate by the above calculation (expected value), the activity by the combination can be regarded as showing a synergistic effect.
Paddy field soil was put into a 1/10,000 are pot, and seeds of barnyardgrass (Echinochloa oryzicola vasing) were sown and left to stand under an irrigated condition with a water depth of 3.5 cm. When barnyardgrass reached 2.0 to 2.5 leaf stage, wettable powders of compound A2 and compound (B1.1) were, respectively, diluted with water and applied under submerged condition so that the active ingredients became the prescribed amounts, respectively. The state of growth was visually observed 21 days after application, and the growth inhibition rate (%) evaluated in accordance with the following evaluation standard (observed value) and the growth inhibition rate (%) calculated by the above-mentioned Colby method (expected value) are shown in Table 1.
Growth inhibition rate (%)=0% (equivalent to the non-treated area) to 100% (complete kill)
(§1) Paddy field soil was put into a 1/10,000 are pot, and seeds of barnyardgrass (Echinochloa oryzicola vasing) were sown and left to stand under an irrigated condition with a water depth of 3.5 cm. When barnyardgrass reached 2.0 to 2.5 leaf stage, wettable powders of compound A2 and compound (B2.1) were, respectively, diluted with water and applied under submerged condition so that the active ingredients became the prescribed amounts, respectively. The state of growth was visually observed 21 days after application, and evaluation and calculation were carried out in the same manner as in the above Test Example 1.
as §1, with “leaf stage, a wettable powder” for “leaf stage, wettable powders”, “a wettable powder of compound” for “stage, wettable powders of compound”, “A2 and an emulsifiable concentrate of compound (B3.1)” for “A2 and compound (B2.1)”, “of compound (B3.1) were, respectively,” for “and compound (B2.1) were, respectively,”
as §1, with “(B4.1)” for “(B2.1)”
Paddy field soil was put into a 1/10,000 are pot, and seeds of barnyardgrass (Echinochloa oryzicola vasing) were sown and left to stand under an irrigated condition with a water depth of 3.5 cm. […]

[1] = Echinochloa oryzicola, soil, 336 h, 2.8 to 3.4 leaf stage, 14 days after application, Test Examples 66-72, read-out: Growth inhibition rate (%) Observed
[2] = Echinochloa oryzicola, soil, 504 h, 2.0 to 2.5 leaf stage, 21 days after application, read-out: Growth inhibition rate (%) Observed
[3] = Echinochloa oryzicola, soil, 504 h, 3.0 to 3.3 leaf stage, 21 days after application, read-out: Growth inhibition rate (%) Observed
[4] = Echinochloa oryzicola, soil, 528 h, 2.5 to 3.0 leaf stage, 22 days after application, read-out: Growth inhibition rate (%) Observed
[5] = Echinochloa oryzicola, soil, 528 h, 2.1 to 3.2 leaf stage, 22 days after application, read-out: Growth inhibition rate (%) Observed

COC(=O)c1ccccc1CS(=O)(=O)NC(=O)Nc1nc(OC)cc(OC)n1 [Compound (B1.1), bensulfuron-methyl]
inhibition at 25.5 g/ha (Echinochloa oryzicola, soil, 336 h, 0.255 g/a, 2.8 to 3.4 leaf stage, 14 days after application, Test Examples 66-72, read-out: Growth inhibition rate (%) Observed): 30%
inhibition at 51 g/ha [1]: 45%
inhibition at 26 g/ha (Echinochloa oryzicola, soil, 504 h, 0.26 g/a, 2.0 to 2.5 leaf stage, 21 days after application, read-out: Growth inhibition rate (%) Observed): 47%
inhibition at 51 g/ha [2]: 57%

CCOC(=O)c1cnn(C)c1S(=O)(=O)NC(=O)Nc1nc(OC)cc(OC)n1 [Compound (B1.3), pyrazosulfuron-ethyl]
inhibition at 7.9 g/ha [3]: 20%
inhibition at 15.8 g/ha [3]: 37%
inhibition at 7.9 g/ha [4]: 50%
inhibition at 15.8 g/ha [4]: 70%

COc1cc(OC)nc(NC(=O)NS(=O)(=O)c2c(Cl)nc3ccccn23)n1 [Compound (B1.4), imazosulfuron]
inhibition at 45 g/ha (Echinochloa oryzicola, soil, 336 h, 0.45 g/a, 2.8 to 3.4 leaf stage, 14 days after application, Test Examples 66-72, read-out: Growth inhibition rate (%) Observed): 25%
inhibition at 90 g/ha (Echinochloa oryzicola, soil, 336 h, 0.9 g/a, 2.8 to 3.4 leaf stage, 14 days after application, Test Examples 66-72, read-out: Growth inhibition rate (%) Observed): 40%
inhibition at 33.8 g/ha (Echinochloa oryzicola, soil, 528 h, 0.338 g/a, 2.5 to 3.0 leaf stage, 22 days after application, read-out: Growth inhibition rate (%) Observed): 53%
inhibition at 67.5 g/ha (Echinochloa oryzicola, soil, 528 h, 0.675 g/a, 2.5 to 3.0 leaf stage, 22 days after application, read-out: Growth inhibition rate (%) Observed): 57%

CCOc1ccccc1OS(=O)(=O)NC(=O)Nc1nc(OC)cc(OC)n1 [Compound (B1.5), ethoxysulfuron]
inhibition at 10.5 g/ha (Echinochloa oryzicola, soil, 336 h, 0.105 g/a, 2.8 to 3.4 leaf stage, 14 days after application, Test Examples 66-72, read-out: Growth inhibition rate (%) Observed): 10%
inhibition at 21 g/ha (Echinochloa oryzicola, soil, 336 h, 0.21 g/a, 2.8 to 3.4 leaf stage, 14 days after application, Test Examples 66-72, read-out: Growth inhibition rate (%) Observed): 20%
inhibition at 7.9 g/ha [4]: 0%
inhibition at 15.8 g/ha [4]: 3%

COC(=O)c1c(Cl)nn(C)c1S(=O)(=O)NC(=O)Nc1nc(OC)cc(OC)n1 [Compound (B1.6), halosulfuron-methyl]
inhibition at 30 g/ha (Echinochloa oryzicola, soil, 456 h, read-out: Growth inhibition rate (%) Observed, 0.3 g/a, 2.8 to 3.2 leaf stage, 19 days after application, Test Examples 62-65): 25%
inhibition at 60 g/ha (Echinochloa oryzicola, soil, 456 h, read-out: Growth inhibition rate (%) Observed, 0.6 g/a, 2.8 to 3.2 leaf stage, 19 days after application, Test Examples 62-65): 40%

CO/N=C(\C)c1cccc(Oc2nc(OC)cc(OC)n2)c1C(=O)OC [Compound (B2.1), pyriminobac-methyl]
inhibition at 90 g/ha (Echinochloa oryzicola, soil, 336 h, read-out: Growth inhibition rate (%) Observed, 0.9 g/a, 2.8 to 3.4 leaf stage, 14 days after application, Test Examples 66-72): 60%
inhibition at 22.5 g/ha (Echinochloa oryzicola, soil, 504 h, read-out: Growth inhibition rate (%) Observed, 0.225 g/a, 2.0 to 2.5 leaf stage, 21 days after application): 60%
inhibition at 45 g/ha (Echinochloa oryzicola, soil, 504 h, read-out: Growth inhibition rate (%) Observed, 0.45 g/a, 2.0 to 2.5 leaf stage, 21 days after application): 80%

COCc1cccc(C(O)c2nc(OC)cc(OC)n2)c1NS(=O)(=O)C(F)F (stereo not drawn) [Compound (B2.2), KUH-021]
Growth inhibition rate (%) Observed (0.25 g/a, 2.8 to 3.2 leaf stage, 21 days after application, Test Examples 39-43): 60%
Growth inhibition rate (%) Observed (0.335 g/a, 2.8 to 3.2 leaf stage, 21 days after application, Test Examples 39-43): 68%

CS(=O)(=O)c1ccc(C(=O)C2C(=O)CCCC2=O)c([N+](=O)[O-])c1 [Compound (B4.2), mesotrione]
inhibition at 25 g/ha (Echinochloa oryzicola, soil, 336 h, 0.25 g/a, 2.8 to 3.4 leaf stage, 14 days after application, Test Examples 66-72, read-out: Growth inhibition rate (%) Observed): 0%
inhibition at 50 g/ha [1]: 0%
inhibition at 25 g/ha (Echinochloa oryzicola, soil, 504 h, 0.25 g/a, 2.0 to 2.5 leaf stage, 21 days after application, read-out: Growth inhibition rate (%) Observed): 0%
inhibition at 50 g/ha [2]: 0%

Cc1nn(C)c(OCC(=O)c2ccccc2)c1C(=O)c1ccc(Cl)cc1Cl [Compound (B4.3), pyrazoxyfen]
Growth inhibition rate (%) Observed (5.63 g/a, 2.5 to 3.0 leaf stage, 22 days after application): 0%
Growth inhibition rate (%) Observed (11.25 g/a, 2.5 to 3.0 leaf stage, 22 days after application): 10%

CS(=O)(=O)c1ccc(C(=O)C2C(=O)CCCC2=O)c(Cl)c1COCC1CCCO1 (stereo not drawn) [Compound (B4.4), AVH-301]
inhibition at 112.5 g/ha [1]: 0%
inhibition at 225 g/ha [1]: 0%
inhibition at 112.5 g/ha [5]: 13%
inhibition at 225 g/ha [5]: 13%

Cc1ccc(S(=O)(=O)Oc2c(C(=O)c3ccc(Cl)cc3Cl)c(C)nn2C)cc1 [Compound (B4.5), pyrazolynate]
inhibition at 500 g/ha (Echinochloa oryzicola, soil, 456 h, 5 g/a, 2.8 to 3.2 leaf stage, 19 days after application, Test Examples 62-65, read-out: Growth inhibition rate (%) Observed): 0%
inhibition at 1000 g/ha (Echinochloa oryzicola, soil, 456 h, 10 g/a, 2.8 to 3.2 leaf stage, 19 days after application, Test Examples 62-65, read-out: Growth inhibition rate (%) Observed): 0%

Cc1ccc(C(=O)COc2c(C(=O)c3ccc(Cl)c(C)c3Cl)c(C)nn2C)cc1 [Compound (B4.6), benzofenap]
Growth inhibition rate (%) Observed (5 g/a, 2.8 to 3.2 leaf stage, 19 days after application, Test Examples 62-65): 0%
Growth inhibition rate (%) Observed (10 g/a, 2.8 to 3.2 leaf stage, 19 days after application, Test Examples 62-65): 0%

CC(C)(NC(=O)NCc1ccccc1Cl)c1ccccc1 [Compound (B6.2), cumyluron]
inhibition at 750 g/ha (Echinochloa oryzicola, soil, 504 h, 7.5 g/a, 2.0 to 2.5 leaf stage, 21 days after application, read-out: Growth inhibition rate (%) Observed): 3%
inhibition at 1500 g/ha (Echinochloa oryzicola, soil, 504 h, 15 g/a, 2.0 to 2.5 leaf stage, 21 days after application, read-out: Growth inhibition rate (%) Observed): 3%
